Several values for one entry are separate records, joined by “and”; a condition that tells them apart may be missing. Equal entries are not always repeated.
Assays:
Type in all cases: cell-based, Murine
cAMP, glycerol release = assay: cAMP levels and glycerol release in TNF-α induced 3T3-L1 adipocytes (isoproterenol)
Experimental: The epididymal adipose tissue was dissected, the fresh adipose tissue was weighed and rapidly rinsed with PBS. The adipose tissue was cut and incubated with isoproterenol (10 μM) for 2 h, and homogenized in a cold cleavage buffer to prepare the adipose tissue homogenate. Then the homogenate was centrifuged at 12,000 × g at 4 °C for 15 min, and the supernatant was collected. […] Then the cells were lysed in a petri dish, scraped off, and centrifuged at 12,000 × g at 4 °C for 15 min before the supernatant was collected. […] And concentrations were further standardized according to protein concentration.

IKKε [1] = target: T1, IKKε (Mus musculus, UniProt Q9R0T8); assay: IKKε-knockdown 3T3-L1 adipocytes (siRNA; western blotting, cAMP, glycerol, ISO); design: endogenous in cells; host or cells: differentiated 3T3-L1 adipocytes; details: ISO +, 10μM BJ -
T1 sequence (Q9R0T8 1-717): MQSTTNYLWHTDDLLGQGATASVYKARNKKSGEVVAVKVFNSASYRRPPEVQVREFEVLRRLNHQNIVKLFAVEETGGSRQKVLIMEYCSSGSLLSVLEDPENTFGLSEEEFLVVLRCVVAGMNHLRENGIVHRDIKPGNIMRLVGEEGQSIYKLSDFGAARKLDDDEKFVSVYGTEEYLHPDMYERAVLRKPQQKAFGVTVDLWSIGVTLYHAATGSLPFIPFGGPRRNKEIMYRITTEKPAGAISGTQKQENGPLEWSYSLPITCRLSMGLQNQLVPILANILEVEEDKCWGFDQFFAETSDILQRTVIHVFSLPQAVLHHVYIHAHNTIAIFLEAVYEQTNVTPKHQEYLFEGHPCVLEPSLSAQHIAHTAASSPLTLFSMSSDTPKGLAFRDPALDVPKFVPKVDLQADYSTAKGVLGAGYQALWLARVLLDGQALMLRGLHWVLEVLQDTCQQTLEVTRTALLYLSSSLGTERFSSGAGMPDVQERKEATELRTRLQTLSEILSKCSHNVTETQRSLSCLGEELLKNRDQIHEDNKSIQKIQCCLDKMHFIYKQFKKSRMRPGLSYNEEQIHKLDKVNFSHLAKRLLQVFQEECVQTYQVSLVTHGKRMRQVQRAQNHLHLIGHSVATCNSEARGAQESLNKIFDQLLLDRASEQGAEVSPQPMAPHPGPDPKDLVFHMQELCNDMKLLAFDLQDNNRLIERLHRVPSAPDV
Experimental: (§1) Small interference RNA transfection (siRNA) was performed using 4 μM TBK1 siRNA (siTBK1) or 4 μM […]ε) or corresponding NC siRNA (siNC). The epididymal adipose tissue was dissected, the fresh adipose tissue was weighed and rapidly rinsed with PBS. The adipose tissue was cut and incubated with isoproterenol (10 μM) for 2 h, and homogenized in a cold cleavage buffer to prepare the adipose tissue homogenate. Then the homogenate was centrifuged at 12,000 × g at 4 °C for 15 min, and the supernatant was collected. […] Then the cells were lysed in a petri dish, scraped off, and centrifuged at 12,000 × g at 4 °C for 15 min before the supernatant was collected. […] And concentrations were further standardized according to protein concentration. The adipose tissue or 3T3-L1 adipocytes were homogenized by ultrasound in an ice-cold RIPA lysis buffer containing 1% PMSF and centrifuged at 12,000 × g at 4°C for 15 min to collect the supernatant. The BCA protein assay kit (Beyotime, Shanghai, China) was used to detect the total protein concentration. Proteins (20-30 μg) of the sample were separated by 10% SDS-PAGE gel and transferred onto polyvinylidene difluoride (PVDF) membranes. Then the PVDF membranes were blocked in 5% skim milk powder in TBS containing 1% Tween-20 (TBST) for 2 h at room temperature and washed with TBST for 3 times. […] After washing, the membranes were incubated with horseradish peroxidase-conjugated secondary antibodies (in 5% skim milk powder) for 1 h at room temperature. Finally, the membranes were treated with enhanced chemiluminescence agents (Tanon, Shanghai, China) and the signals were monitored using the Tanon 5200 multi chemiluminescent imaging system (Tanon, Shanghai, China).

IKKε [2] = target: T1, IKKε; assay: 3T3-L1 adipocytes transfected with IKKε plasmid (western blotting, cAMP, glycerol, ISO); design: endogenous in cells; host or cells: differentiated 3T3-L1 adipocytes; IKKε (western blotting, Figure 8h) / UCP1 (western blotting, Figure 8i) / UCP1 (western blotting, Figure 8j): scale not given here; cAMP levels (Figure 8k) / Glycerol release (Figure 8l): unit not given here
Experimental: as §1

`CC(C)NCC(O)c1ccc(O)c(O)c1` (stereo not shown) [ISO] was tested, and the “Glycerol release in differentiated 3T3-L1 adipocytes induced by TNF-α” value (cAMP, glycerol release; ISO) was 113.104 µmol/L and 118.167 µmol/L and 114.792 µmol/L, the “cAMP levels in differentiated 3T3-L1 adipocytes induced by TNF-α” value (cAMP, glycerol release; ISO) was 0.361 pmol/mg protein and 0.3597 pmol/mg protein and 0.3681 pmol/mg protein and the “Glycerol release in differentiated 3T3-L1 adipocytes induced by TNF-α” value (cAMP, glycerol release; ISO+TNF-α(50ng/ml)) was 103.823 µmol/L and 102.136 µmol/L and 105.511 µmol/L. The “cAMP levels in differentiated 3T3-L1 adipocytes induced by TNF-α” value (cAMP, glycerol release; ISO+TNF-α(50ng/ml)) was 0.2016 pmol/mg protein and 0.1968 pmol/mg protein and 0.1945 pmol/mg protein, the “Glycerol (Figure 9l)” value (IKKε [1]; siIKKϵ +) was 169.673 µmol/L and 171.907 µmol/L and 177.534 µmol/L and the “UCP1 (western blotting, Figure 9J)” value (IKKε [1]; siIKKϵ +) was 0.6893 and 0.7105 and 0.7747. For the same compound, the “cAMP (Figure 9k)” value (IKKε [1]; siIKKϵ +) was 0.3589 pmol/mg protein and 0.3755 pmol/mg protein and 0.3876 pmol/mg protein and 0.3693 pmol/mg protein and 0.3629 pmol/mg protein and 0.3678 pmol/mg protein, the “Glycerol (Figure 9l)” value (IKKε [1]; siIKKϵ -) was 104.409 µmol/L and 108.54 µmol/L and 120.987 µmol/L and the “UCP1 (western blotting, Figure 9J)” value (IKKε [1]; siIKKϵ -) was 0.5841 and 0.5565 and 0.4767. The “cAMP (Figure 9k)” value (IKKε [1]; siIKKϵ -) was 0.2714 pmol/mg protein and 0.2836 pmol/mg protein and 0.2536 pmol/mg protein and 0.2485 pmol/mg protein and 0.2952 pmol/mg protein, the “Glycerol release (Figure 8l)” value (IKKε [2]; ISO) was 108.886 and 102.136 and 112.261 and the “UCP1 (western blotting, Figure 8j)” value (IKKε [2]; ISO) was 0.8258 and 0.5499 and 0.929. For the same compound, the “cAMP levels (Figure 8k)” value (IKKε [2]; ISO) was 0.2652 and 0.258 and 0.2726, the “Glycerol release (Figure 8l)” value (IKKε [2]; ISO+IKKε) was 84.4172 and 90.3234 and 97.917 and the “UCP1 (western blotting, Figure 8j)” value (IKKε [2]; ISO+IKKε) was 0.3959 and 0.3641 and 0.3989. For the same compound, the “cAMP levels (Figure 8k)” value (IKKε [2]; ISO+IKKε) was 0.1824 and 0.1892 and 0.1882.
